Experimental data reported in the supplement of paper PMC10307832.

Key:
Assay in all cases: relative viability (nuclei count vs DMSO), 5 days (fraction); higher = more cells survive
Imatinib + Pictilisib = compound: Cc1ccc(NC(=O)c2ccc(CN3CCN(C)CC3)cc2)cc1Nc1nccc(-c2cccnc2)n1 [Imatinib] + CS(=O)(=O)N1CCN(Cc2cc3nc(-c4cccc5[nH]ncc45)nc(N4CCOCC4)c3s2)CC1 [Pictilisib] (partner 1 µM)
Method in brief: (§1)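 Relative viability is defined as nuclei in treated wells over nuclei in vehicle wells. Duplicate plates were run and medians reported. Lung cancer cell lines in 1536-well plates were dosed by pin tool one day after seeding, with one drug or with a fixed anchor-drug dose plus five library-drug doses (not always all listed) in √10 steps, and nuclei were counted after 5 days.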

Imatinib + Lapatinib = compound: Cc1ccc(NC(=O)c2ccc(CN3CCN(C)CC3)cc2)cc1Nc1nccc(-c2cccnc2)n1 [Imatinib] + CS(=O)(=O)CCNCc1ccc(-c2ccc3ncnc(Nc4ccc(OCc5cccc(F)c5)c(Cl)c4)c3c2)o1 [Lapatinib] (partner 2 µM)
Method in brief: as §1

Imatinib + Olaparib = compound: Cc1ccc(NC(=O)c2ccc(CN3CCN(C)CC3)cc2)cc1Nc1nccc(-c2cccnc2)n1 [Imatinib] + O=C(c1cc(Cc2n[nH]c(=O)c3ccccc23)ccc1F)N1CCN(C(=O)C2CC2)CC1 [Olaparib] (partner 8 µM)
Method in brief: as §1

Imatinib + Decitabine = compound: Cc1ccc(NC(=O)c2ccc(CN3CCN(C)CC3)cc2)cc1Nc1nccc(-c2cccnc2)n1 [Imatinib] + Nc1ncn([C@H]2C[C@H](O)[C@@H](CO)O2)c(=O)n1 [Decitabine] (partner 2 µM)
Method in brief: as §1

Imatinib + Alpelisib = compound: Cc1ccc(NC(=O)c2ccc(CN3CCN(C)CC3)cc2)cc1Nc1nccc(-c2cccnc2)n1 [Imatinib] + Cc1nc(NC(=O)N2CCC[C@H]2C(N)=O)sc1-c1ccnc(C(C)(C)C(F)(F)F)c1 [Alpelisib] (partner 2 µM)
Method in brief: as §1

Imatinib + Navitoclax = compound: Cc1ccc(NC(=O)c2ccc(CN3CCN(C)CC3)cc2)cc1Nc1nccc(-c2cccnc2)n1 [Imatinib] + CC1(C)CCC(c2ccc(Cl)cc2)=C(CN2CCN(c3ccc(C(=O)NS(=O)(=O)c4ccc(N[C@H](CCN5CCOCC5)CSc5ccccc5)c(S(=O)(=O)C(F)(F)F)c4)cc3)CC2)C1 [Navitoclax] (partner 0.5 µM)
Method in brief: as §1

Imatinib + Linsitinib = compound: Cc1ccc(NC(=O)c2ccc(CN3CCN(C)CC3)cc2)cc1Nc1nccc(-c2cccnc2)n1 [Imatinib] + C[C@]1(O)C[C@@H](c2nc(-c3ccc4ccc(-c5ccccc5)nc4c3)c3c(N)nccn32)C1 [Linsitinib] (partner 1 µM)
Method in brief: as §1

Imatinib + Phenformin = compound: Cc1ccc(NC(=O)c2ccc(CN3CCN(C)CC3)cc2)cc1Nc1nccc(-c2cccnc2)n1 [Imatinib] + N=C(N)NC(=N)NCCc1ccccc1 [Phenformin] (partner 250 µM)
Method in brief: as §1

Imatinib = compound: Cc1ccc(NC(=O)c2ccc(CN3CCN(C)CC3)cc2)cc1Nc1nccc(-c2cccnc2)n1 [Imatinib]
Method in brief: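 Nuclei counted with MetaXpress define viability as the ratio of treated to vehicle wells, given as a median across plates. The lung cancer cell lines were in 1536-well plates, pinned with five √10-spaced library-drug doses and imaged at 4× after 5 days and Hoechst staining. Plates passed with control CV below 25% and at least one doubling.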

Cell Line A549 has a relative viability (Imatinib + Pictilisib; first compound 0.02 µM) of 0.729, a relative viability (Imatinib + Pictilisib; first compound 0.06325 µM) of 0.703 and a relative viability (Imatinib + Pictilisib; first compound 0.2 µM) of 0.545. The relative viability (Imatinib + Pictilisib; first compound 0.6325 µM) was 0.553, the relative viability (Imatinib + Pictilisib; first compound 2 µM) was 0.466 and the relative viability (Imatinib + Lapatinib; first compound 0.02 µM) was 1.09. For the same cell line, the relative viability (Imatinib + Lapatinib; first compound 0.06325 µM) was 1.13, the relative viability (Imatinib + Lapatinib; first compound 0.2 µM) was 1.11 and the relative viability (Imatinib + Lapatinib; first compound 0.6325 µM) was 1.07. The relative viability (Imatinib + Lapatinib; first compound 2 µM) was 0.99, the relative viability (Imatinib + Olaparib; first compound 0.02 µM) was 0.472 and the relative viability (Imatinib + Olaparib; first compound 0.2 µM) was 0.299. The relative viability (Imatinib + Olaparib; first compound 0.6325 µM) was 0.307, the relative viability (Imatinib + Olaparib; first compound 2 µM) was 0.42 and the relative viability (Imatinib + Decitabine; first compound 0.02 µM) was 0.287. For the same cell line, the relative viability (Imatinib + Decitabine; first compound 0.2 µM) was 0.355, the relative viability (Imatinib + Decitabine; first compound 0.6325 µM) was 0.32 and the relative viability (Imatinib + Decitabine; first compound 2 µM) was 0.222. The relative viability (Imatinib + Alpelisib; first compound 0.02 µM) was 0.793, the relative viability (Imatinib + Alpelisib; first compound 0.06325 µM) was 0.841 and the relative viability (Imatinib + Alpelisib; first compound 0.6325 µM) was 0.722. The relative viability (Imatinib + Alpelisib; first compound 2 µM) was 0.949, the relative viability (Imatinib + Navitoclax; first compound 0.02 µM) was 1.31 and the relative viability (Imatinib + Navitoclax; first compound 0.06325 µM) was 1.53. For the same cell line, the relative viability (Imatinib + Navitoclax; first compound 0.2 µM) was 1.55, the relative viability (Imatinib + Navitoclax; first compound 0.6325 µM) was 1.18 and the relative viability (Imatinib + Navitoclax; first compound 2 µM) was 1.17. It also gave a relative viability (Imatinib + Linsitinib; first compound 0.02 µM) of 0.673, a relative viability (Imatinib + Linsitinib; first compound 0.2 µM) of 0.636 and a relative viability (Imatinib + Linsitinib; first compound 0.6325 µM) of 0.699. It also gave a relative viability (Imatinib + Linsitinib; first compound 2 µM) of 0.753, a relative viability (Imatinib + Phenformin; first compound 0.02 µM) of 0.178 and a relative viability (Imatinib + Phenformin; first compound 0.2 µM) of 0.154. It also gave a relative viability (Imatinib + Phenformin; first compound 0.6325 µM) of 0.159, a relative viability (Imatinib + Phenformin; first compound 2 µM) of 0.135 and a relative viability (Imatinib; 0.02 µM) of 1. It also gave a relative viability (Imatinib; 0.06325 µM) of 0.846, a relative viability (Imatinib; 0.2 µM) of 1.19 and a relative viability (Imatinib; 0.6325 µM) of 0.973. The relative viability (Imatinib; 2 µM) was 0.99.
